Results from US11690813B2, “Aminothiol reduction of ischemia-reperfusion-induced cell death” (OBVIA PHARMACEUTICALS LTD, priority 2018, dated 2023).
Values joined by “and” are separate entries in the source; they are usually repeats but may differ in a detail not shown here. Equal values may be shown once. Read-outs that look alike come from different tables or passages of the source.

How the values were obtained:
irradiated skin = format: in vivo, rat
[1] = in vivo
[2] = rat, in vivo
[3] = humans; cited from earlier work
pUC19 plasmid DNA [4] = assay: x-irradiation ROS-induced nicking of pUC19 plasmid DNA; format: biochemical
pUC19 plasmid DNA [5] = format: biochemical
[6] = system: serum blood urea nitrogen (BUN); details: mouse, in vivo, ip
cardiac muscle = details: mouse, in vivo, ip
[7] = system: primary neonate cardiac myocytes; format: cell-based, mice
human blood lymphocytes = format: cell-based
[8] = design: species or system mice; details: mouse, in vivo
[9] = system: Caspase 3 and 7 activity in kidney homogenate supernates; details: mouse, in vivo, ip
[10] = mouse, in vivo
[11] = mouse, in vivo; remark: listed apart in the source
physchem = details: buffer, pH 7.2
[12] = rats; cited from earlier work
[13] = added 15 min before 90 Gy x-irradiation over 30 min

NCCCNCCSP(=O)(O)O [Amifostine, amifostine]
Ionizing Radiation-ROS-Induced Dermatitis (% Clear Skin) (irradiated skin; Topical 100 mM, day 13): 0 % Clear Skin
retching and emesis responses [1]: significant bouts of both retching and emesis
blood pressure response to challenge dose of IP epinephrine after drug [2]: no discernible effect upon blood pressure
effect on blood pressure ([2]; ip): immediate and irreversible drop in blood pressure
ocular toxicity associated with chronic hypotension ([2]; ip): discernible ocular phenotype/toxicity
hypotension/fainting side effects [3]: hypotension/fainting side effects
nausea/emesis side effects [3]: severe nausea/emesis side effects

CNCC(CS)CNC [PrC-210]
suppression of ROS-induced damage to plasmid DNA (pUC19 plasmid DNA [4]): dose-dependent suppression
suppression of pUC19 DNA damage (pUC19 plasmid DNA [4]): 90%
suppression of .OH-induced ROS DNA damage (pUC19 plasmid DNA [5]): complete suppression
reduction in serum blood urea nitrogen (BUN) level [6]: like reduction
reduction in percentage of total cardiac muscle stained as dead-tissue (cardiac muscle): 36%
H2O2-induced cell death eliminated [7]: ~80%
suppression of γ-H2AX foci formation (human blood lymphocytes): highly significant
Ionizing Radiation-ROS-Induced Dermatitis (% Clear Skin) (irradiated skin; rat, in vivo): 100 % Clear Skin
Ionizing Radiation-ROS-Induced Dermatitis (% Clear Skin) (irradiated skin; rat, in vivo, ip): 100 % Clear Skin
suppression of radiation-induced death [8]: complete suppression
survival against otherwise 100% lethal dose of radiation [8]: 100%
reduction in level of kidney caspase [9]: 84%
reduction in level of kidney caspase at 0.24 MTD [9]: highly significant reductions
reduction in level of kidney caspase over dose range [9]: dose-dependent reduction
retching and emesis responses ([1]; ferret): none of the 10 ferrets
blood pressure response to challenge dose of IP epinephrine after drug [2]: robust increase in blood pressure
effect on blood pressure ([2]; ip): no reduction in blood pressure
PrC-210 thiol blood concentration [10]: 3 mM
plasma/blood concentrations of PrC-210 thiol associated with protection [10]: 1 to 3 mM
half-life of the thiol (buffer, pH 7.2): 3.5 h
conversion to disulfide form (pH 6): no discernible conversion
IP maximum tolerated dose (MTD) [11]: 504 ug/gm body weight
half-life (physchem): 3.5 h

NCC(CN)CS [PrC-211]
Ionizing Radiation-ROS-Induced Dermatitis (% Clear Skin) (irradiated skin; rat, in vivo): 55 % Clear Skin and 100 % Clear Skin
Ionizing Radiation-ROS-Induced Dermatitis (% Clear Skin) (irradiated skin; rat, in vivo, ip): 87 % Clear Skin
reduction in level of kidney caspase at 0.24 MTD [9]: highly significant reductions
IP maximum tolerated dose (MTD) [11]: 500 ug/gm body weight

NCCCNCCS [WR-1065, reference compound]
suppression of ROS-induced damage to plasmid DNA (pUC19 plasmid DNA [4]; [13]): dose-dependent suppression
hypotension side effects [12]: hypotension side effects

NCCS [cysteamine, reference compound]
suppression of ROS-induced damage to plasmid DNA (pUC19 plasmid DNA [4]; [13]): dose-dependent suppression

CN(C)C(=O)C(CCN1CCC(O)(c2ccc(Cl)cc2)CC1)(c1ccccc1)c1ccccc1 [loperamide]
retching and emesis responses [1]: strong retch and emesis responses
